GI50 and TGI data for nine compounds are collected here from PubChem BioAssay (NCI).

SMILES strings stand for the structures. Where “and” joins values, the source holds several entries; their conditions need not be identical. Equal values may be shown once.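 Test compounds were applied to cells in 96-well plates for 48 hours at 5 doses. GI50 marks 50% less growth. TGI: total growth inhibition.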 Some results are limits rather than exact numbers.

What all share (test): NCI anticancer screen, dose series, 48 h
In experiment [1] the test system is OVCAR-5 ovarian.
The test system of experiment [2] is SK-OV-3 ovarian.
The test system of experiment [3] is UACC-62 melanoma.
Experiment [4] has as its system MOLT-4 leukemia.
For experiment [5], the system named is NCI-H23 lung.
Experiment [6] has as its system COLO 205 colon.
Experiment [7] concerns SW-620 colon.
The subject of experiment [8] is RPMI-8226 leukemia.
Experiment [9] concerns BT-549 breast.
Experiment [10] relates to MDA-MB-231 breast.

Consider `C=C1C(O)C2C(=C(CC)C13CC3)C(=O)C(C)(C)C2OC` (stereo not given), for which the GI50 in experiment [1] was over 100 µM; in [2] it was over 100 µM; in experiment [3], 84.9 µM; in experiment [4] it was 27.3 µM; in experiment [5] it was 55.6 µM; in experiment [6], over 100 µM. The GI50 in experiment [7] was 59.9 µM; in experiment [8], 20.6 µM; in [9] it was over 100 µM; in experiment [10] it was 87.5 µM. The TGI in experiment [1], in experiment [2], in experiment [3], in experiment [4], in experiment [5] and in experiment [6] was over 100 µM each time. Also, the TGI in [7] is over 100 µM; in experiment [8], 68 µM; in [9], over 100 µM; in [10], over 100 µM.

With `COc1cccc(N2C(=O)C3c4[nH]c5ccccc5c4C4CCCC4C3C2=O)c1` (stereo not given), the TGI in [1], in [2], in [3], in experiment [4], in experiment [5] and in experiment [6] was over 10 µM each time. Moreover, the TGI in experiment [7] was over 10 µM; in experiment [8] it was over 10 µM; in [9] it was over 10 µM; in experiment [10], 5.63 µM.

For `NCCCC[C@@H]1NC(=O)[C@H]2CCCN2C(=O)[C@H](Cc2ccccc2)CNC(=O)[C@H](Cc2ccccc2)NC1=O`, the GI50 in experiment [1], in experiment [2], in experiment [3], in experiment [4], in experiment [5] and in [6] was over 37.5 µM throughout. Moreover, the GI50 in experiment [7], in experiment [8], in [9] and in experiment [10] was over 37.5 µM throughout. For the same compound, the TGI in [1], in experiment [2], in experiment [3], in experiment [4], in [5] and in experiment [6] was over 37.5 µM in each case. Also, the TGI in experiment [7], in experiment [8], in experiment [9] and in experiment [10] was over 37.5 µM in each case.

With `COc1ccc2c(CN3CCCC[C@H]3C(=O)O)cc3cc4c(cc3c2c1)OCO4`, the GI50 in experiment [1] was 6.17 µM; in experiment [2] it was 3.25 µM; in experiment [3], 1.02 µM; in experiment [4] it was 0.278 µM; in experiment [5], 3.25 µM; in experiment [6], 0.494 µM. Also, the GI50 in [7] is 0.37 µM; in experiment [8], 2.57 µM; in [9], 2.6 µM; in experiment [10] it was 0.799 µM. Moreover, the TGI was 44.5 µM in experiment [1]; 23.1 µM in [2]; 2.34 µM in experiment [3]; 2.3 µM in experiment [4]; over 100 µM in [5]; 2.88 µM in experiment [6]. Also, the TGI in experiment [7] was 1.79 µM; in experiment [8], 7.24 µM; in experiment [9] it was 6.6 µM; in experiment [10], 3.59 µM.

`Cc1cccc(/C=N/NC(=S)N2CCCC2)n1`: the GI50 in experiment [1] is 2.41 µM; in experiment [3], 0.587 µM; in experiment [5], 0.401 µM; in [6], 0.193 µM; in [7], 0.352 µM; in experiment [8], 0.426 µM and 0.322 µM. In addition, the GI50 in [9] is 3.02 µM; in [10], 1.14 µM. Also, the TGI is over 100 µM in experiment [2]; 2.8 µM and 1 µM in experiment [3]; over 100 µM in experiment [4]; 13.4 µM in experiment [5]; over 100 µM in experiment [7]; over 100 µM in [8]. For the same compound, the TGI in experiment [9] was over 100 µM.

Take `CC(C)(C)C(=O)OCC1C(=O)OCC1C(=O)N1Cc2cc3ccccc3nc2C1` (stereo not given): the TGI in experiment [1] is 23.1 µM; in experiment [2], 29.8 µM; in [3] it was 15.7 µM; in [4] it was 4.06 µM; in experiment [5], 13.6 µM; in experiment [6], 2.41 µM. Moreover, the TGI in experiment [7] was determined as 3.17 µM; in experiment [8], 4.82 µM; in [9], 8.83 µM; in experiment [10], 14.4 µM.

For the compound `Cc1cc2c(C(C)C)c(O)c(O)cc2c(O)c1-c1c(C)cc2c(C(C)C)c(O)c(O)cc2c1O`, the GI50 in experiment [1] is 17.9 µM; in experiment [2], 23.9 µM; in experiment [3] it was 2.32 µM; in [4] it was 10.6 µM; in experiment [5], 18.4 µM; in [6], 3.84 µM. Besides, the GI50 in experiment [7] is 16.7 µM; in [8], 13.1 µM; in experiment [9], 14.4 µM; in [10], 13.5 µM. Further, the TGI in experiment [1] worked out at 36.5 µM; in experiment [2], 73.5 µM; in experiment [3], 14.3 µM; in experiment [4] it was 44.9 µM; in [5], 37.5 µM; in [6] it was 15 µM. Moreover, the TGI in experiment [7] was 40.5 µM; in experiment [8], 39.3 µM; in experiment [9] it was 41.2 µM; in [10], 34.8 µM.

For `Cc1c(C(=O)Nc2ccccc2)sc2ncn(Cc3cccc(Cl)c3)c(=O)c12`, the GI50 in [1] was 27 µM; in experiment [2] it was over 100 µM; in experiment [3], 18.8 µM; in experiment [4], 51.8 µM; in [5], 6.5 µM; in [6], over 100 µM. The GI50 is 53.3 µM in experiment [7], 10.4 µM in [8], 11.3 µM in experiment [9] and 12.1 µM in experiment [10]. Also, the TGI in [1] was 94.5 µM; in experiment [2] it was over 100 µM; in experiment [3], over 100 µM; in [4], over 100 µM; in experiment [5], over 100 µM; in experiment [6], over 100 µM. For the same compound, the TGI in experiment [7] is over 100 µM; in experiment [8], over 100 µM; in [9], 27.6 µM; in experiment [10] it was 38.2 µM.

Take `O=C1/C(=C/c2ccccc2)CN(C(=O)CCN2CCOCC2)C/C1=C\c1ccccc1`: the TGI in experiment [1] was 16.2 µM; in experiment [2], 24.2 µM; in experiment [3] it was 3.52 µM; in experiment [4] it was 21.6 µM; in [5], 6.13 µM; in [6] it was 7.67 µM. The TGI in experiment [7] turned out to be 1.55 µM; in [8] it was 3.3 µM; in [9] it was 4.71 µM; in experiment [10], 9.78 µM.
